The source of these data is patent US6524603B1, “Process and composition for the antiparasitic treatment of the surroundings of animals” (priority 1996, dated 2003).

For this experiment, the system named is darkling beetles (Alphitobius diaperinus). Description: Poultry house litter treatment, darkling beetle population monitored with 9 traps. Format: in vivo. The settings on record: water-dispersible granules 80% compound (A), 150 g/ha; during the 10th week (end of a rearing cycle). As to the method: The treatment took place on the clean litter before the poultry was installed therein. The clean litter was essentially composed of straw.
On the day after the treatment, a group of chicks aged 1 to 2 days was installed in the rearing house at the rate of approximately 7 animals per m^2.
The change in the population of darkling beetles (Alphitobius diaperinus) in the litter was regularly monitored using 9 homogeneously distributed traps. Measurements were carried out each week from the second week after the treatment until rearing was halted.
The total population of darkling beetles in the 9 traps of the treated poultry house varied between 11 and 96 until the 9th week after treatment whereas, in a similar but untreated poultry house, the population of darkling beetles (larvae and adults) oscillated between 1000 and 3000 at each counting point.

For `N#Cc1nn(-c2c(Cl)cc(C(F)(F)F)cc2Cl)c(N)c1[S+]([O-])C(F)(F)F` (stereo not shown) [compound (A), 1-[2,6-Cl2-4-CF3phenyl]-3-CN-4-[SO—CF3]-5-NH2pyrazole], the “control of darkling beetles” value is 86%.
